According to patent US8518957B2, “Methanocarba adenosine derivatives, pharmaceutical compositions, and method of reducing intraocular pressure” (The United States of America, as represented by the …, priority 2009, dated 2013):

How the values were obtained:
[1] = target: T1, hA2AAR (Homo sapiens, UniProt P29274); assay: Radioligand binding at human A2A AR ([3H]CGS21680, membranes of HEK-293 cells); conditions: for Ki / % inhibition, A2A: [3H]37, HEK293 cells; for Ki: read-out: Affinity (Ki, nM), A2A; for % inhibition, A2A: inhibition of radioligand binding at 10 μM
T1 construct: expressed in transfected cells
T1 sequence (P29274 whole entry): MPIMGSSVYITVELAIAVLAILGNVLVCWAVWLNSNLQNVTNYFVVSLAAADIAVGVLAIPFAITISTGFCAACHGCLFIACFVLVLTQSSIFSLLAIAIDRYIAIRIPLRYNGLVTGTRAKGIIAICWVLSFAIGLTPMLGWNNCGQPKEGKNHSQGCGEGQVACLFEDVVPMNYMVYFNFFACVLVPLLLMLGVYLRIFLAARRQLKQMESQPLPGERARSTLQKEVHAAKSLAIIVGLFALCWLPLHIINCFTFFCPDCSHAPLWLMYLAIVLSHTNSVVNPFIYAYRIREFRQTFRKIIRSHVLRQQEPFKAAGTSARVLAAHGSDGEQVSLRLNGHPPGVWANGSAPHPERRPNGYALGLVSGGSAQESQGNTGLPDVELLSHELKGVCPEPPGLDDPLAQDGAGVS
Summary of the method: (§1)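 Membranes from CHO (hA1, hA3) or HEK-293 (hA2A) cells were pretreated with adenosine deaminase and incubated 60 min at 25° C in pH 7.5 Tris/10 mM MgCl2. Radioligands were A1 [3H]NECA 3.5 nM, A2A [3H]CGS21680 10 nM and A3 [125I]I-AB-MECA 0.34 nM. Bound ligand was filtered and Ki derived.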

[2] = target: T2, human A3AR (Homo sapiens, UniProt P0DMS8); assay: Cyclic AMP accumulation assay: inhibition of forskolin-stimulated cyclic AMP production in AR-transfected CHO cells; type: cell-based; conditions: for % Inhibition of cAMP formation at hA3 AR: at 10 μM, in comparison to the maximal effect of full agonist NECA at 10 μM
T2 construct: expressed in transfected cells
T2 sequence (P0DMS8 1-318): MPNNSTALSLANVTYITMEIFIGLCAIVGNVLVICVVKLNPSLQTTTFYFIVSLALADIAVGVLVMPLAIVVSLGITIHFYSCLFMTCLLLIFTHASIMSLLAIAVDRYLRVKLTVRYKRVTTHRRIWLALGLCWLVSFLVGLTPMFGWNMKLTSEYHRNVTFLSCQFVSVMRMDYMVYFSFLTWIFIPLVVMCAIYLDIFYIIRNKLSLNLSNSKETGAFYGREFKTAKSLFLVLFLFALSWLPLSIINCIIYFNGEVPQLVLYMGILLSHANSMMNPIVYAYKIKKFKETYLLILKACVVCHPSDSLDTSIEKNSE
Experimental: Intracellular cyclic AMP levels were measured with a competitive protein binding method. […] CHO cells that expressed the recombinant human A3AR were harvested by trypsinization. After centrifugation and resuspended in medium, cells were planted in 24-well plates in 1.0 mL medium. After 24 h, the medium was removed and cells were washed three times with 1 mL DMEM, containing 50 mM HEPES, pH 7.4. […] After 45 min forskolin (10 μM) was added to the medium, and incubation was continued for an additional 15 min. […] The cell lysate was resuspended and stored at −20° C. For determination of cyclic AMP production, protein kinase A (PKA) was incubated with [^3H]cyclic AMP (2 nM) in K2HPO4/EDTA buffer (K2HPO4, 150 mM; EDTA, 10 mM), 20 μL of the cell lysate, and 30 μL 0.1 M HCl or 50 μL of cyclic AMP solution (0-16 pmol/200 μL for standard curve). Bound radioactivity was separated by rapid filtration through Whatman GF/C filters and washed once with cold buffer. Bound radioactivity was measured by liquid scintillation spectrometry.
Bound radioactivity was separated by rapid filtration through Whatman GF/C filters and washed the filters once with cold buffer. Bound radioactivity was measured with liquid scintillation spectrometry.

[3] = target: T3, human A1 AR (Homo sapiens, UniProt P30542); assay: Radioligand binding at human A1 AR ([3H]NECA, membranes of CHO cells); conditions: for % inhibition, A1: inhibition of radioligand binding at 10 μM, [3H]36, CHO cells
T3 construct: expressed in transfected cells
T3 sequence (P30542 1-326): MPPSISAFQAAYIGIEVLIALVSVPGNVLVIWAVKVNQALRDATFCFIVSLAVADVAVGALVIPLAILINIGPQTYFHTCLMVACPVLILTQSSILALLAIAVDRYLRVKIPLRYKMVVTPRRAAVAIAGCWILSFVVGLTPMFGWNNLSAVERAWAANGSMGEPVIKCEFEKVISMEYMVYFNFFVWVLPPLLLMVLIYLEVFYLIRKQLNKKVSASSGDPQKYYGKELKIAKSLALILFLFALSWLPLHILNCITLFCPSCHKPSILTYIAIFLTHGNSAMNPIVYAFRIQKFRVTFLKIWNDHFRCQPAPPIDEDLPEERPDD
Summary of the method: as §1

Ki [1] [nM] | % Inhibition of cAMP formation at hA3 AR [2] [%] | % Inhibition of cAMP accumulation at the hA3AR ([2]; concentration 10 μM, in comparison to full agonist NECA at 1 μM) [%] | inhibition at 10 µM [3] [%] | inhibition at 10 µM [1] [%] | % inhibition, A1 [3] | % inhibition, A2A [1] | SMILES
7040 ± 1430 | 60.2 ± 17.0 | 60.2 ± 17.0 |  |  |  |  | C#CCCCCC#Cc1nc(NCc2cccc(Cl)c2)c2ncn(C3C(O)C(O)C4(C(=O)NC)CC34)c2n1 (stereo not drawn) [Compound 9, (1′S, 2′R, 3′S, 4′S, 5′S)-4′-[6-(3-Chlorobenzylamino)-2-(1,7-octadiynyl)-9H-purin-9-yl]-2′,3′-dihydroxybicyclo[3.1.0]hexane-1′-carboxylic acid N-methylamide]
6730 ± 280 | 116 ± 22 |  | 8 |  |  |  | CNC(=O)[C@@]12C[C@@H]1[C@@H](n1cnc3c(NCc4cccc(Cl)c4)nc(C#CCCCCc4cn(-c5ccc(F)c([N+](=O)[O-])c5)nn4)nc31)[C@H](O)[C@@H]2O [Compound 11]
5490 ± 1150 | 44.3 ± 2.4 |  | 3 |  |  |  | CNC(=O)[C@@]12C[C@@H]1[C@@H](n1cnc3c(NCc4cccc(Cl)c4)nc(C#CCCCCc4cn(-c5ccc(N)cc5)nn4)nc31)[C@H](O)[C@@H]2O [Compound 12, (1S,2R,3S,4R,5S)-4′-(6-(3-Chlorobenzylamino)-2-(6-(1-(4-amino-phenyl)-1H-1,2,3-triazol-4-yl)hex-1-ynyl)-9H-purin-9-yl)-2′,3′-dihydroxybicyclo[3.1.0]hexane-1′-carboxylic acid N-methylamide]
 | 83.4 ± 13.1 |  | 0 | 40 |  |  | CNC(=O)[C@@]12C[C@@H]1[C@@H](n1cnc3c(NCc4cccc(Cl)c4)nc(C#CCCCCc4cn(-c5ccc(C(=O)O)cc5)nn4)nc31)[C@H](O)[C@@H]2O [Compound 13, (1S,2R,3S,4R,5S)-4′-(6-(3-Chlorobenzylamino)-2-(6-(1-(4-carboxyl-phenyl)-1H-1,2,3-triazol-4-yl)hex-1-ynyl)-9H-purin-9-yl)-2′,3′-dihydroxybicyclo[3.1.0]hexane-1′-carboxylic acid N-methylamide]
5740 ± 730 | 109 ± 12 |  | 12 |  |  |  | CNC(=O)[C@@]12C[C@@H]1[C@@H](n1cnc3c(NCc4cccc(Cl)c4)nc(C#CCCCCc4cn(-c5ccc(C(=O)CBr)cc5)nn4)nc31)[C@H](O)[C@@H]2O [Compound 14, (1S,2R,3S,4R,5S)-6-(3-Chlorobenzylamino)-4-(2-(6-(4-(2-bromoacetyl)phenyl)-1H-1,2,3-triazol-4-yphex-1-ynyl)-9H-purin-9-yl)-2′,3′-dihydroxybicyclo[3.1.0]hexane-1′-carboxylic acid N-methylamide]
2440 ± 320 | 93.6 ± 17.7 |  | 12 |  |  |  | CNC(=O)[C@@]12C[C@@H]1[C@@H](n1cnc3c(NCc4cccc(Cl)c4)nc(C#CCCCCc4cn(CCNC(C)=O)nn4)nc31)[C@H](O)[C@@H]2O [Compound 15, (1S,2R,3S,4R,5S)-6-(3-Chlorobenzylamino)-(2-(6-(1-(4-acetamidoethyl)-1H-1,2,3-triazol-4-yl)hex-1-ynyl)-9H-purin-9-yl)-2′,3′-dihydroxybicyclo[3.1.0]hexane-1′-carboxylic acid N-methylamide]
1630 ± 350 | 64.4 ± 12.4 |  | 13 |  |  |  | CNC(=O)[C@@]12C[C@@H]1[C@@H](n1cnc3c(NCc4cccc(Cl)c4)nc(C#CCCCCc4cn(CCCCN)nn4)nc31)[C@H](O)[C@@H]2O [Compound 16, (1S,2R,3S,4R,5S)-6-(3-Chlorobenzylamino)-(2-(6-(1-(4-aminobutyl)-1H-1,2,3-triazol-4-yl)hex-1-ynyl)-9H-purin-9-yl)-2′,3′-dihydroxybicyclo[3.1.0]hexane-1′-carboxylic acid N-methylamide]
7240 ± 510 | 59.7 ± 19.2 |  | 17 |  |  |  | CNC(=O)[C@@]12C[C@@H]1[C@@H](n1cnc3c(NCc4cccc(Cl)c4)nc(C#CCCCCc4cn(CCCCNC(C)=O)nn4)nc31)[C@H](O)[C@@H]2O [Compound 17, (1S,2R,3S,4R,5S)-6-(3-Chlorobenzylamino)-(2-(6-(1-(4-acetamidobutyl)-1H-1,2,3-triazol-4-yl)hex-1-ynyl)-9H-purin-9-yl)-2′,3′-dihydroxybicyclo[3.1.0]hexane-1′-carboxylic acid N-methylamide]
3280 ± 700 | 27.8 ± 17.4 |  | 22 |  |  |  | CNC(=O)[C@@]12C[C@@H]1[C@@H](n1cnc3c(NCc4cccc(Cl)c4)nc(C#CCCCCc4cn(C56CC7CC(CC(C7)C5)C6)nn4)nc31)[C@H](O)[C@@H]2O [Compound 18, (1S,2R,3S,4R,5S)-6-(3-Chlorobenzylamino)-(2-(6-(1-(adamantyl)-1H-1,2,3-triazol-4-yl)hex-1-ynyl)-9H-purin-9-yl)-2′,3′-dihydroxybicyclo[3.1.0]hexane-1′-carboxylic acid N-methylamide]
 | 75.9 ± 16.5 |  | 15 | 49 |  |  | CNC(=O)[C@@]12C[C@@H]1[C@@H](n1cnc3c(NCc4cccc(Cl)c4)nc(C#CCCCCc4cn(Cc5ccc(-n6sccc6=O)cc5)nn4)nc31)[C@H](O)[C@@H]2O [Compound 19, (1S,2R,3S,4R,5S)-6-(3-Chlorobenzylamino)-(2-(1-(4-3-oxoisothiazol-2(3H)-yl)benzyl-1H-1,2,3-triazol-4-yphex-1-ynyl)-9H-purin-9-yl)-2′,3′-dihydroxybicyclo[3.1.0]hexane-β-carboxylic acid N-methylamide]
 | 55.6 ± 12.5 |  | 0 | 27 |  |  | CNC(=O)[C@@]12C[C@@H]1[C@@H](n1cnc3c(NCc4cccc(Cl)c4)nc(C#CCCCCc4cn(CCCCCCNC(=O)CCCC[C@@H]5SC[C@@H]6NC(=O)N[C@@H]65)nn4)nc31)[C@H](O)[C@@H]2O [Compound 20, (1S,2R,3S,4R,5S)-6-(3-Chlorobenzylamino)-(2-(6-(1-(6-(5-(3aS,4S,6aR)-oxohexahydro-1H-thieno[3,4-d]imidazol-4-yl)pentanamido)hexyl-1H-1,2,3-triazol-4-yl)hex-1-ynyl)-9H-purin-9-yl)-2′,3′-dihydroxybicyclo[3.1.0]hexane-1′-carboxylic acid N-methylamide]
 | 41.8 ± 11.3 |  |  |  | (0 ± 0%) | (19 ± 5%) | CNC(=O)[C@@]12C[C@@H]1[C@@H](n1cnc3c(NCc4cccc(Cl)c4)nc(C#CCCCCc4cn(CCCCCCC(=O)NCCCCCCNC(=O)CCCC[C@@H]5SC[C@@H]6NC(=O)N[C@@H]65)nn4)nc31)[C@H](O)[C@@H]2O [Compound 21]
 | 37.8 ± 14.6 |  |  |  | (0 ± 0%) | (23 ± 5%) | CNC(=O)[C@@]12C[C@@H]1[C@@H](n1cnc3c(NCc4cccc(Cl)c4)nc(C#CCCCCc4cn(CCCCCCNC(=O)c5ccc(-c6c7ccc(=N)c(S(=O)(=O)O)c-7oc7c(S(=O)(=O)O)c(N)ccc67)c(C(=O)O)c5)nn4)nc31)[C@H](O)[C@@H]2O [Compound 23]
